# Laboratory results as given in patent publication US12344603B2 (Genentech, Inc., priority 2020, dated 2025).
# Counter-ions that a name gives are not always drawn.
# Molecular target: IRE1α (Homo sapiens (Human), UniProt O75460, D688N)
# Experiment: IRE1α TR-FRET competition binding assay (IRE1α HTRF)
# Details: TR-FRET competition binding to kinase domain of IRE1α
# Experimental: IRE1α TR-FRET Competition Binding Assay. The affinity of compound binding to the kinase domain of IRE1α was determined using a time-resolved fluorescence resonance energy transfer (TR-FRET) competition assay.
# The purified protein (final concentration 0.25 nM) was pre-incubated with anti-His Europium labeled antibody (Life Technologies PV5596, final concentration 2 nM) for one hour at 4° C. in TR-FRET Assay Buffer (50 mM HEPES, pH 7.5, 10 mM MgCl2, 0.083 mM Brij 35, 1 mM DTT, and 0.1% bovine gamma globulin) prior to addition to test compounds. An Alexa fluor 647-labeled probe based on an ATP competitive inhibitor was added to a final concentration of 2 nM. Reactions were carried out for one hour at room temperature in a final volume of 20 μL in 384 well white ProxiPlates (Perkin Elmer 6008289). Binding of the probe to the IRE1α protein was detected in an Envision instrument (PerkinElmer) equipped with a TRF laser option and a LANCE/Delfia Dual/Bias D400/D630 mirror (Ex 347 nm, 1st Em 665 nm, 2nd Em 615 nm).
# Sequence of IRE1α (O75460 547-977 D688N): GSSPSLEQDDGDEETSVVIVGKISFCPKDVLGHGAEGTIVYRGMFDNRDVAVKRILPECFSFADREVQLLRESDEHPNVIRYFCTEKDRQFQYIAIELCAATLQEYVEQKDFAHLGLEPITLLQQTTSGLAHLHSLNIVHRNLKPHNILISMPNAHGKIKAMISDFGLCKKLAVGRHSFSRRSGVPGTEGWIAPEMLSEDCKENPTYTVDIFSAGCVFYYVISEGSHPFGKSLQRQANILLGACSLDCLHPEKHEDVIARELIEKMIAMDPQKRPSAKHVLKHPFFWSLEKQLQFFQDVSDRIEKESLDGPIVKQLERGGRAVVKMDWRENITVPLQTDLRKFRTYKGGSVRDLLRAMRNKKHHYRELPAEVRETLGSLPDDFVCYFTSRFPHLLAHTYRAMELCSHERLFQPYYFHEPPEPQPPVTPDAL
row,SMILES,IC50 [nM]
1,"CC(C)n1c(=O)c(-c2cccc(NS(=O)(=O)Cc3ccccc3)c2F)cc2cnc(N[C@H]3CCCNC3)nc21 [Compound 16, (S)—N-(2-Fluoro-3-(8-isopropyl-7-oxo-2-(piperidin-3-ylamino)-7,8-dihydropyrido[2,3-d]pyrimidin-6-yl)phenyl)-1-phenylmethanesulfonamide]",5.8
2,"CC(C)n1c(=O)c(-c2ccc(F)c(NS(=O)(=O)Cc3ccccc3)c2)cc2cnc(N[C@H]3CCCNC3)nc21 [Compound 17, (S)—N-(2-Fluoro-5-(8-isopropyl-7-oxo-2-(piperidin-3-ylamino)-7,8-dihydropyrido[2,3-d]pyrimidin-6-yl)phenyl)-1-phenylmethanesulfonamide hydrochloride]",11
3,"O=c1c(-c2ccc(NS(=O)(=O)Cc3ccccc3)c(F)c2F)cc2cnc(N[C@@H]3CNC[C@@H](F)C3)nc2n1C1CCCC1 [Compound 18, N-(4-(8-Cyclopentyl-2-(((3S,5S)-5-fluoropiperidin-3-yl)amino)-7-oxo-7,8-dihydropyrido[2,3-d]pyrimidin-6-yl)-2,3-difluorophenyl)-1-phenylmethanesulfonamide]",0.41
4,"CC(C)n1c(=O)c(-c2ccc(F)c(NS(=O)(=O)Cc3ccccc3)c2F)cc2cnc(N[C@H]3CCCNC3)nc21 [Compound 19, (S)—N-(2,6-Difluoro-3-(8-isopropyl-7-oxo-2-(piperidin-3-ylamino)-7,8-dihydropyrido[2,3-d]pyrimidin-6-yl)phenyl)-1-phenylmethanesulfonamide]",2.2
5,"CC(C)Nc1ncc2cc(-c3cc(F)c(NS(=O)(=O)Cc4ccccc4)c(F)c3F)c(=O)n(C(C)C)c2n1 [Compound 20, 1-Phenyl-N-(2,3,6-trifluoro-4-(8-isopropyl-2-(isopropylamino)-7-oxo-7,8-dihydropyrido[2,3-d]pyrimidin-6-yl)phenyl)methanesulfonamide]",1.2
6,"CC(C)Nc1ncc2cc(-c3cc(F)c(NS(=O)(=O)CCC(F)(F)F)c(F)c3F)c(=O)n(C(C)C)c2n1 [Compound 21, 3,3,3-Trifluoro-N-(2,3,6-trifluoro-4-(8-isopropyl-2-(isopropylamino)-7-oxo-7,8-dihydropyrido[2,3-d]pyrimidin-6-yl)phenyl)propane-1-sulfonamide]",16
7,"CC(C)n1c(=O)c(-c2cc(F)c(NS(=O)(=O)Cc3ccccc3)c(F)c2F)cc2cnc(N[C@H]3CC[C@H](N(C)C)CC3)nc21 [Compound 24, N-(4-(2-(((1r,4r)-4-(Dimethylamino)cyclohexyl)amino)-8-isopropyl-7-oxo-7,8-dihydropyrido[2,3-d]pyrimidin-6-yl)-2,3,6-trifluorophenyl)-1-phenylmethanesulfonamide]",2.7
8,"CC(C)n1c(=O)c(-c2cc(F)c(NS(=O)(=O)CCC(C)(F)F)c(F)c2F)cc2cnc(N[C@H]3CC[C@H](N(C)C)CC3)nc21 [Compound 33, N-(4-(2-(((1r,4r)-4-(Dimethylamino)cyclohexyl)amino)-8-isopropyl-7-oxo-7,8-dihydropyrido[2,3-d]pyrimidin-6-yl)-2,3,6-trifluorophenyl)-3,3-difluorobutane-1-sulfonamide]",0.98
9,"CC(C)n1c(=O)c(-c2cc(F)c(NC(=O)C3CC3)c(F)c2F)cc2cnc(N[C@H]3CC[C@H](N(C)C)CC3)nc21 [Compound 37, N-(4-(2-(((1r,4r)-4-(Dimethylamino)cyclohexyl)amino)-8-isopropyl-7-oxo-7,8-dihydropyrido[2,3-d]pyrimidin-6-yl)-2,3,6-trifluorophenyl)cyclopropanecarboxamide]",1.4
10,"CCn1c(=O)c(-c2cc(F)c(NS(=O)(=O)Cc3cccc(C(F)(F)F)c3)c(F)c2F)cc2cnc(N[C@@H]3CNC[C@@H](F)C3)nc21 [Compound 39, N-(4-(8-Ethyl-2-(((3S,5S)-5-fluoropiperidin-3-yl)amino)-7-oxo-7,8-dihydropyrido[2,3-d]pyrimidin-6-yl)-2,3,6-trifluorophenyl)-1-(3-(trifluoromethyl)phenyl)methanesulfonamide]",0.4
11,"O=c1c(-c2ccc(NS(=O)(=O)Cc3ccccc3)c(F)c2F)cc2cnc(N[C@@H]3CNC[C@@H](F)C3)nc2n1CC(F)(F)F [Compound 40, N-(2,3-Difluoro-4-(2-(((3S,5S)-5-fluoropiperidin-3-yl)amino)-7-oxo-8-(2,2,2-trifluoroethyl)-7,8-dihydropyrido[2,3-d]pyrimidin-6-yl)phenyl)-1-phenylmethanesulfonamide]",1.7
12,"CCC1CCN(c2ccc(-c3cc4cnc(N[C@@H]5CNC[C@@H](F)C5)nc4n(CC)c3=O)c(F)c2F)C1=O (stereo partly drawn) [Compound 41, 8-Ethyl-6-(4-(3-ethyl-2-oxopyrrolidin-1-yl)-2,3-difluorophenyl)-2-(((3S,5S)-5-fluoropiperidin-3-yl)amino)pyrido[2,3-d]pyrimidin-7(8H)-one]",87

# The remaining lines, values ahead:
row,IC50 [nM],SMILES
1,0.21,"CCn1c(=O)c(-c2cc(F)c(NS(=O)(=O)Cc3ccccc3)c(F)c2F)cc2cnc(N[C@@H]3CNC[C@@H](F)C3)nc21 [Compound 15, N-(4-(8-Ethyl-2-(((3S,5S)-5-fluoropiperidin-3-yl)amino)-7-oxo-7,8-dihydropyrido[2,3-d]pyrimidin-6-yl)-2,3,6-trifluorophenyl)-1-phenylmethanesulfonamide]"
2,0.33,"CC(C)n1c(=O)c(-c2cc(F)c(NS(=O)(=O)CCC(F)(F)F)c(F)c2F)cc2cnc(N[C@H]3CC[C@H](N(C)C)CC3)nc21 [Compound 25, N-(4-(2-(((1r,4r)-4-(Dimethylamino)cyclohexyl)amino)-8-isopropyl-7-oxo-7,8-dihydropyrido[2,3-d]pyrimidin-6-yl)-2,3,6-trifluorophenyl)-3,3,3-trifluoropropane-1-sulfonamide]"
3,0.19,"CC(C)n1c(=O)c(-c2cc(F)c(NS(=O)(=O)Cc3ccccc3)c(F)c2F)cc2cnc(N[C@@H]3CNC[C@@H](F)C3)nc21 [Compound 26, 1-Phenyl-N-(2,3,6-trifluoro-4-(2-(((3S,5S)-5-fluoropiperidin-3-yl)amino)-8-isopropyl-7-oxo-7,8-dihydropyrido[2,3-d]pyrimidin-6-yl)phenyl)methanesulfonamide]"
4,0.22,"CC(C)n1c(=O)c(-c2cc(F)c(NS(=O)(=O)Cc3ccccc3)c(F)c2F)cc2cnc(N[C@@H]3CNC[C@@](C)(F)C3)nc21 [Compound 27, 1-Phenyl-N-(2,3,6-trifluoro-4-(2-(((3S,5S)-5-fluoro-5-methylpiperidin-3-yl)amino)-8-isopropyl-7-oxo-7,8-dihydropyrido[2,3-d]pyrimidin-6-yl)phenyl)methanesulfonamide]"
5,0.19,"O=c1c(-c2cc(F)c(NS(=O)(=O)Cc3ccccc3)c(F)c2F)cc2cnc(N[C@@H]3CNC[C@@H](F)C3)nc2n1C1CCC1 [Compound 28, N-(4-(8-Cyclobutyl-2-(((3S,5S)-5-fluoropiperidin-3-yl)amino)-7-oxo-7,8-dihydropyrido[2,3-d]pyrimidin-6-yl)-2,3,6-trifluorophenyl)-1-phenylmethanesulfonamide]"
6,0.21,"CC(C)n1c(=O)c(-c2cc(F)c(NS(=O)(=O)Cc3ccc(C#N)cc3)c(F)c2F)cc2cnc(N[C@@H]3CNC[C@@H](F)C3)nc21 [Compound 29, 1-(4-Cyanophenyl)-N-(2,3,6-trifluoro-4-(2-(((3S,5S)-5-fluoropiperidin-3-yl)amino)-8-isopropyl-7-oxo-7,8-dihydropyrido[2,3-d]pyrimidin-6-yl)phenyl)methanesulfonamide]"
7,0.21,"CC(C)n1c(=O)c(-c2cc(F)c(NS(=O)(=O)Cc3cccc(C#N)c3)c(F)c2F)cc2cnc(N[C@@H]3CNC[C@@H](F)C3)nc21 [Compound 30, 1-(3-Cyanophenyl)-N-(2,3,6-trifluoro-4-(2-(((3S,5S)-5-fluoropiperidin-3-yl)amino)-8-isopropyl-7-oxo-7,8-dihydropyrido[2,3-d]pyrimidin-6-yl)phenyl)methanesulfonamide]"
8,0.11,"COc1cccc(CS(=O)(=O)Nc2c(F)cc(-c3cc4cnc(N[C@@H]5CNC[C@@H](F)C5)nc4n(C(C)C)c3=O)c(F)c2F)c1 [Compound 31, 1-(3-Methoxyphenyl)-N-(2,3,6-trifluoro-4-(2-(((3S,5S)-5-fluoropiperidin-3-yl)amino)-8-isopropyl-7-oxo-7,8-dihydropyrido[2,3-d]pyrimidin-6-yl)phenyl)methanesulfonamide hydrochloride]"
9,0.34,"CC(C)n1c(=O)c(-c2cc(F)c(NS(=O)(=O)Cc3ccccc3C#N)c(F)c2F)cc2cnc(N[C@@H]3CNC[C@@H](F)C3)nc21 [Compound 32, 1-(2-Cyanophenyl)-N-(2,3,6-trifluoro-4-(2-(((3S,5S)-5-fluoropiperidin-3-yl)amino)-8-isopropyl-7-oxo-7,8-dihydropyrido[2,3-d]pyrimidin-6-yl)phenyl)methanesulfonamide]"
10,0.18,"CCC(F)(F)CS(=O)(=O)Nc1c(F)cc(-c2cc3cnc(N[C@H]4CC[C@H](N(C)C)CC4)nc3n(C(C)C)c2=O)c(F)c1F [Compound 36, N-(4-(2-(((1r,4r)-4-(Dimethylamino)cyclohexyl)amino)-8-isopropyl-7-oxo-7,8-dihydropyrido[2,3-d]pyrimidin-6-yl)-2,3,6-trifluorophenyl)-2,2-difluorobutane-1-sulfonamide]"
11,0.39,"CC(C)n1c(=O)c(-c2cc(F)c(NS(=O)(=O)Cc3ccn(C)n3)c(F)c2F)cc2cnc(N[C@@H]3CNC[C@@H](F)C3)nc21 [Compound 38, 1-(1-Methyl-1H-pyrazol-3-yl)-N-(2,3,6-trifluoro-4-(2-(((3S,5S)-5-fluoropiperidin-3-yl)amino)-8-isopropyl-7-oxo-7,8-dihydropyrido[2,3-d]pyrimidin-6-yl)phenyl)methanesulfonamide]"
